Experimental data taken from patent US20260250325A1, “Antiviral Polypeptide Membrane Fusion Inhibitor, and Preparation Method and Application Thereof” (priority 2025, published 2026).
Where a SMILES comes first, the peptide text is derived from it. [ ]: non-standard residue; d: D form. The star is where a group is joined. ξ: configuration not given here. Succinyl(4-O-cholesteryl) = CC(C)CCC[C@@H](C)[C@H]1CC[C@H]2[C@@H]3CC=C4C[C@@H](OC(=O)CCC(=O)*)CC[C@]4(C)[C@H]3CC[C@]12C; ξD = NC(CC(=O)O)C(=O)O

Columns and labels:
RSV A2 virus strain [1] = assay: Mouse RSV A2 challenge protection, lung viral titer by plaque method; assay type: in vivo, BALB/c mice; settings: for Mean (PFU/g lung): BALB/c mice, tracheal nebulization 1 mg/kg QD for 5 days, lung collected 2 h after final administration on Day 4; for effect on viral titer in lung tissue (in words): mice, tracheal nebulization once daily for 5 days
Description: Female BALB/c mice were from Shanghai Yishang Biotechnology Co., Ltd. HEp- 2 were from the ATCC, with a catalog number CCL-23. The cells were cultured in a DMEM medium solution in which 10% (v/v) fetal bovine serum and 1% penicillin and streptomycin were added. The RSV A2 virus strain was from the ATCC, with a catalog number VR-1540.
Eight-week-old female BALB/c mice were grouped based on body weight (n=6). All animals were intranasally challenged with RSV on Day 0 at a challenge dosage of 1×10^6 pfu (20 μL) per animal. Administration began 1 h after Day 0 challenge; the polypeptide sample, positive control, and solvent control were administered via tracheal nebulization once daily for 5 consecutive days (see Table 3 below for administration dosage and administration frequency). Lung tissue was collected from all animals 2 h after the final administration on Day 4; left lung tissue was rapidly frozen in a virus protection solution with a 10-fold volume and stored below −70° C.; and a viral titer was detected by using a plaque method.
For analysis, the lung RSV A2 virus was determined by performing a tissue homogenate viral load plaque method. In short, on the day prior to sample detection, the HEp-2 cells were inoculated into a 12-well plate (spreading density being 0.3×10^6 cells/mL, with 1000 μL of cell suspension per well) according to a standard HEp-2 cell culture operation procedure. On the day of incubation, the supernatant was taken from the tissue sample that was homogenized using a tissue homogenizer (maintaining a low-temperature environment), and the supernatant was taken after centrifugation. The tissue homogenate sample was diluted with serum-free DMEM, and inoculated into a 12-well plate at a final volume of 400 μL. After 2 h of incubation, the homogenate supernatant was discarded, and 1.5 mL of a covering layer (cell culture medium containing 1% soft agar) was added to each well and cultured in the incubator for approximately 72 h. The covering layer was discarded, the cells were fixed, blocking was performed by using a blocking solution, dyeing was performed with HRP-RSVG, development and air drying were terminated with pure water. Colored spots on the well plate were counted by using a fluorescent (enzyme-linked) immunoassay spot analyzer, and the viral titer was expressed as a plaque-forming unit per gram of tissue (PFU/g). The viral titer was calculated as an arithmetic mean±standard error of all animals in a group.
(§1) One hour after RSV A2 challenge in mice, compounds 13, 14, 17, 19, 20, 21, 26, 27, 28, and 40 were administered via tracheal nebulization once daily for 5 consecutive days; and 2 h after the final administration, lung tissue was collected from all groups for viral plaque detection, and results were shown in Table 3.

RSV A2 virus strain [2] = assay: Cotton rat RSV A2 challenge protection, lung nucleic acid load by RT-qPCR; assay type: in vivo; settings: cotton rats; for Nucleic acid load RT-qPCR detection results Log10 mean (copy number/gram of lung tissue): tracheal nebulization 1 mg/kg QD for 5 days, lung collected 2 h after final administration on Day 4; for effect on viral titer in lung tissue (in words): tracheal nebulization once daily for 5 days
Text: Female cotton rats were from Shanghai Yishang Biotechnology Co., Ltd. The RSV A2 virus strain was from the ATCC, with a catalog number VR-1540. RT-qPCR primer+probe primer were supplied by Qingke Biotechnology Co., Ltd, with batch number TSP20241227-025-00187. The RT-qPCR standard was provided by Vazyme, with batch number 20241008.
Female cotton rats (6-8 weeks old) were grouped based on body weight (n=5). All animals were intranasally challenged with RSV on Day 0 at a challenge dosage of […] pfu (50 μL) per animal. Administration began 1 h after Day 0 challenge; the polypeptide sample, positive control, and solvent control were administered via tracheal nebulization once daily for 5 consecutive days. Lung tissue was collected from all animals 2 h after the final administration on Day 4. Left lung tissue (including partial trachea) was rapidly frozen in a virus protection solution with a 10-fold volume and stored below −70° C.; and the viral titer was detected with RT-qPCR.
First, sample homogenization and lung tissue RNA extraction were performed, and the supernatant was taken from the tissue sample that was homogenized using a tissue homogenizer (maintaining a low-temperature environment). The approximately 100 μL of the homogenate supernatant was taken, and total tissue RNA was extracted by using a VeZol reagent-chloroform-water phase-magnetic bead method, and dissolved in RNase-free water. The RT-qPCR reaction system was prepared as follows: a one-step RT-qPCR reaction system was prepared by using an RNA template, a probe, a primer pair, an RT-qPCR buffer, and the RNase-free water; each sample was tested in duplicated wells, with each well containing 20 μL of the one-step RT-qPCR reaction system; a quantitative standard curve well (RSV A2 N gene full-length plasmid), a positive quality control well, and a negative quality control well were arranged at the same time. Then, amplification programs were set according to reverse transcription, pre-denaturation, and cyclic amplification, and amplification data was collected by using a real-time fluorescence quantification PCR instrument, and a mean CT value for duplicated wells was calculated. The CT value from the test results for each sample was substituted into a quantitative standard curve to calculate a copy number. A calculation formula for RSV viral load (copy number/gram of lung tissue) was: sample viral load (copy number/gram of lung tissue)=copy number/relative tissue input (g).
as §1, with “cotton rats,” for “mice,”, “titer” for “plaque”, “4.” for “3.”

[3] = Cytotoxicity test in HEp-2 cells (CCK8 cell viability); assay type: cell-based; settings: human; HEp-2 cells, CCK8, 1 day; read-out: CC50
Summary of the method: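 Compound dilutions (final DMSO 0.5%) were applied for 1 day to HEp-2 cells plated at 30,000 per well the day before. CCK8 signal gave survival relative to cell and medium controls, and a four-parameter log(inhibitor)-response fit yielded CC50.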

With `CC[C@H](C)[C@H](NC(=O)[C@H](CCCCN)NC(=O)[C@H](CCCCN)NC(=O)[C@H](CC(C)C)NC(=O)[C@H](CO)NC(=O)[C@H](CCC(=O)O)NC(=O)[C@H](CCC(=O)O)NC(=O)[C@@H](NC(=O)[C@H](CCCCN)NC(=O)[C@H](CCCCN)NC(=O)[C@H](CC(N)=O)NC(=O)[C@@H](NC(=O)[C@H](CCC(=O)O)NC(=O)[C@H](CCC(=O)O)NC(=O)[C@@H](NC(=O)[C@H](CCCCN)NC(=O)[C@H](CCCCN)NC(=O)[C@H](CC(=O)O)NC(=O)[C@H](Cc1ccccc1)NC(=O)[C@H](CCC(=O)O)NC(=O)C(CC(=O)O)NC(C)=O)[C@@H](C)CC)C(C)C)[C@@H](C)CC)C(=O)N[C@@H](CCC(=O)O)C(=O)N[C@@H](CCC(=O)O)C(=O)N[C@@H](CO)C(=O)N[C@@H](CC(=O)O)C(=O)N[C@@H](CCCCN)C(=O)N[C@@H](CCCCN)C(=O)N[C@@H](CC(C)C)C(=O)N[C@@H](CCC(=O)O)C(=O)N[C@@H](CCC(=O)O)C(=O)N[C@H](C(=O)N[C@@H](CC(N)=O)C(=O)N[C@@H](CCC(=O)O)C(=O)N[C@@H](C)C(=O)N[C@@H](C)C(=O)N[C@@H](C)C(=O)N[C@@H](CCCCN)C(=O)N[C@@H](CCCCNC(=O)CCC(=O)O[C@H]1CC[C@@]2(C)C(=CC[C@H]3[C@@H]4CC[C@H]([C@H](C)CCCC(C)C)[C@@]4(C)CC[C@@H]32)C1)C(N)=O)C(C)C` (stereo partly shown) [Compound 14] (Ac-[ξD]EFDKKIEEVNKKIEESLKKIEESDKKLEEVNEAAAKK(Succinyl(4-O-cholesteryl))-NH2) as the compound, how does the “Mean (PFU/g lung)” value (RSV A2 virus strain [1]) read?
The value was 4820 PFU/g lung.

What about the “effect on viral titer in lung tissue (in words)” value (“effect on viral titer” below) (RSV A2 virus strain [1]) of the same compound?
Its value is “significantly reduce the viral titer in lung tissue”.

And the “Nucleic acid load RT-qPCR detection results Log10 mean (copy number/gram of lung tissue)” value (RSV A2 virus strain [2])?
Its value is 7.68 Log10 copy number/gram of lung.

And the “effect on viral titer” value (RSV A2 virus strain [2])?
Its value is “significantly reduce the viral titer in lung tissue”.

What about the CC50 at 1 day [3] of the same compound?
Its CC50 at 1 day is 9.6 µM.

With `CC[C@H](C)[C@H](NC(=O)[C@H](CCCCN)NC(=O)[C@H](CCCCN)NC(=O)[C@H](CC(C)C)NC(=O)[C@H](CO)NC(=O)[C@H](CCC(=O)O)NC(=O)[C@H](CCC(=O)O)NC(=O)[C@@H](NC(=O)[C@H](CCCCN)NC(=O)[C@H](CCCCN)NC(=O)[C@H](CC(N)=O)NC(=O)[C@@H](NC(=O)[C@H](CCC(=O)O)NC(=O)[C@H](CCC(=O)O)NC(=O)[C@@H](NC(=O)[C@H](CCCCN)NC(=O)[C@H](CCCCN)NC(=O)[C@H](CC(=O)O)NC(=O)[C@H](Cc1ccccc1)NC(=O)[C@H](CCC(=O)O)NC(=O)C(CC(=O)O)NC(C)=O)[C@@H](C)CC)C(C)C)[C@@H](C)CC)C(=O)N[C@@H](CCC(=O)O)C(=O)N[C@@H](CCC(=O)O)C(=O)N[C@@H](CO)C(=O)N[C@@H](CC(=O)O)C(=O)N[C@@H](CCCCN)C(=O)N[C@@H](CCCCN)C(=O)N[C@@H](CC(C)C)C(=O)N[C@@H](CCC(=O)O)C(=O)N[C@@H](C)C(=O)N[C@@H](C)C(=O)N[C@@H](C)C(=O)N[C@@H](CCCCN)C(=O)N[C@@H](CCCCNC(=O)CCC(=O)O[C@H]1CC[C@@]2(C)C(=CC[C@H]3[C@@H]4CC[C@H]([C@H](C)CCCC(C)C)[C@@]4(C)CC[C@@H]32)C1)C(N)=O` (stereo partly shown) [Compound 17] (Ac-[ξD]EFDKKIEEVNKKIEESLKKIEESDKKLEAAAKK(Succinyl(4-O-cholesteryl))-NH2) as the compound, how does the “Mean (PFU/g lung)” value (RSV A2 virus strain [1]) read?
The value was 7885 PFU/g lung.

What about the “effect on viral titer” value (RSV A2 virus strain [1]) of the same compound?
Its value is “significantly reduce the viral titer in lung tissue”.

And the “Nucleic acid load RT-qPCR detection results Log10 mean (copy number/gram of lung tissue)” value (RSV A2 virus strain [2])?
The value was 8.42 Log10 copy number/gram of lung.

What about the “effect on viral titer” value (RSV A2 virus strain [2]) of the same compound?
Its value is “significantly reduce the viral titer in lung tissue”.

And the CC50 at 1 day [3]?
Its CC50 at 1 day is 26.4 µM.
